This note sets out measurements from US8063096B2, “Spirocyclic 3-phenyl-3substituted-4-ketolactams and-lactones” (Bayer Cropscience AG, priority 2001, dated 2011).

Holding throughout (type): in vivo
In one test the test system is Spodoptera frugiperda. Nature of the test: Spodoptera frugiperda test. Particulars: 500 ppm active compound, cabbage leaves dipped. On the procedure: (§1) [table] To produce a suitable preparation of active compound, 1 part by weight of active compound is mixed with the stated amounts of solvent and emulsifier, and the concentrate is diluted with emulsifier-containing water to the desired concentration. Cabbage leaves (Brassica oleracea) are treated by being dipped into the preparation of active compound of the desired concentration and are populated with caterpillars of the army worm (Spodoptera frugiperda) while leaves are still moist. After the desired period of time, the kill in % is determined. 100% means that all caterpillars have been killed; 0% means that none of the caterpillars have been killed.

For a further test, the system named is Tetranychus urticae. Description: Tetranychus test (OP-resistant/dip treatment). Particulars: 100 ppm active compound, bean plants dipped, OP-resistant. On the procedure: [table] To produce a suitable preparation of active compound, 1 part by weight of active compound is mixed with the stated amounts of solvent and emulsifier, and the concentrate is diluted with emulsifier-containing water to the desired concentration. Bean plants (Phaseolus vulgaris) which are heavily infested by all stages of the greenhouse […] spider mite (Tetranychus urticae) are dipped into a preparation of active compound of the desired concentration. After the desired period of time, the activity in % is determined. 100% means that all spider mites have been killed; 0% means that none of the spider mites have been killed.

For test [1], the system named is Alopecurus. Nature of the test: Pre-emergence test, Alopecurus. The note with it: pre-emergence/greenhouse; 250 g of ai/ha; after three weeks. On the procedure:
(§2) [table] To produce a suitable preparation of active compound, 1 part by weight of active compound is mixed with the stated amount of solvent, the stated amount of emulsifier is added and the concentrate is diluted with water to the desired concentration. Seeds of the test plants are sown in normal soil. After about 24 hours, the soil is sprayed with the preparation of active compound such that the particular amounts of active compound desired are applied per unit area. The concentration of the spray liquor is chosen such that the particular amounts of active compound desired are applied in 1000 l of water/ha. After three weeks, the degree of damage to the plants is rated in % damage in comparison to the development of the untreated control. The figures denote: • 0%=no effect (like untreated control) • 100%=total destruction

The subject of test [2] is Avena fatua. Nature of the test: Pre-emergence test, Avena fatua. The note with it: pre-emergence/greenhouse; 250 g of ai/ha; after three weeks. On the procedure:
as §2

Test [3] has as its system Echinochloa. Description: Pre-emergence test, Echinochloa. The note with it: pre-emergence/greenhouse; 250 g of ai/ha; after three weeks. On the procedure: as §2
In test [4] the test system is Setaria. Description: Pre-emergence test, Setaria. The note with it: pre-emergence/greenhouse; 250 g of ai/ha; after three weeks. On the procedure: as §2
Test [5] has as its system Amaranthus. Description: Pre-emergence test, Amaranthus. The note with it: pre-emergence/greenhouse; 250 g of ai/ha; after three weeks. On the procedure: as §2
The test system of test [6] is Sinapis. Nature of the test: Pre-emergence test, Sinapis. The note with it: pre-emergence/greenhouse; 250 g of ai/ha; after three weeks. On the procedure:
as §2

The subject of test [7] is Alopecurus. Description: Post-emergence test, Alopecurus. Particulars: post-emergence/greenhouse; 250 g of ai/ha; after three weeks. On the procedure: as §2, with “Test plants” for “Seeds”, “a height of 5-15 cm” for “the test plants”, “are” for “are sown in normal soil. After about 24 hours, the soil is”, “(=like” for “(like”
Test [8] concerns Avena fatua. Description: Post-emergence test, Avena fatua. Particulars: post-emergence/greenhouse; 250 g of ai/ha; after three weeks. On the procedure: as §2, with “Test plants” for “Seeds”, “a height of 5-15 cm” for “the test plants”, “are” for “are sown in normal soil. After about 24 hours, the soil is”, “(=like” for “(like”
Test [9] relates to Echinochloa. Nature of the test: Post-emergence test, Echinochloa. The note with it: post-emergence/greenhouse; 250 g of ai/ha; after three weeks. On the procedure:
as §2, with “Test plants” for “Seeds”, “a height of 5-15 cm” for “the test plants”, “are” for “are sown in normal soil. After about 24 hours, the soil is”, “(=like” for “(like”

Test [10] relates to Setaria. Nature of the test: Post-emergence test, Setaria. The note with it: post-emergence/greenhouse; 250 g of ai/ha; after three weeks. On the procedure:
as §2, with “Test plants” for “Seeds”, “a height of 5-15 cm” for “the test plants”, “are” for “are sown in normal soil. After about 24 hours, the soil is”, “(=like” for “(like”

In test [11] the test system is Amaranthus. Nature of the test: Post-emergence test, Amaranthus. Particulars: post-emergence/greenhouse; 250 g of ai/ha; after three weeks. On the procedure:
as §2, with “Test plants” for “Seeds”, “a height of 5-15 cm” for “the test plants”, “are” for “are sown in normal soil. After about 24 hours, the soil is”, “(=like” for “(like”

In test [12] the test system is Sinapis. Description: Post-emergence test, Sinapis. Particulars: post-emergence/greenhouse; 250 g of ai/ha; after three weeks. On the procedure: as §2, with “Test plants” for “Seeds”, “a height of 5-15 cm” for “the test plants”, “are” for “are sown in normal soil. After about 24 hours, the soil is”, “(=like” for “(like”
The test system of test [13] is Aphis gossypii. Nature of the test: Aphis gossypii test (leaf dip, cotton). Particulars: 500 ppm active compound, cotton leaves dipped. On the procedure:
as §1, with “Cotton” for “Cabbage”, “(Gossypium hirsutum) which are heavily infested by the cotton aphids (Aphis gossypii)” for “(Brassica oleracea)”, “concentration.” for “concentration and are populated with caterpillars of the army worm (Spodoptera frugiperda) while leaves are still moist.”, “aphids” for “caterpillars”

The subject of the next test is Phaedon cochleariae. Nature of the test: Phaedon larvae test. The note with it: 500 ppm active compound, cabbage leaves dipped. On the procedure: as §1, with “with larvae” for “with caterpillars”, “the mustard beetle (Phaedon cochleariae)” for “the army worm (Spodoptera frugiperda)”, “all beetle larvae” for “all caterpillars”, “the beetle larvae” for “the caterpillars”

For another test, the system named is Plutella xylostella. Nature of the test: Plutella test. The note with it: 500 ppm active compound, cabbage leaves dipped. On the procedure: as §1, with “diamondback moth (Plutella xylostella)” for “army worm (Spodoptera frugiperda)”
The test system of test [14] is Aphis gossypii. Nature of the test: Test for persistency: Aphis gossypii (root-systemic action). The note with it: 4 ppm in soil, cotton. On the procedure:
(§3) [table] To produce a suitable preparation of active compound, 1 part by weight of active compound is mixed with the stated amounts of solvent and emulsifier, and the concentrate is diluted with water to the desired concentration. The preparation of active compound is mixed intimately with the soil. The stated concentration refers to the amount of active compound per volume unit of soil (mg/l). The treated soil is filled into pots, and into these pots is planted cotton at the cotyledon stage. In this way, the active compound can be taken up from the soil into the roots of the plants and be transported into the leaves. After the stated number of days, cotton aphids (Aphis gossypii) are, in infection chambers, placed on the leaves. After the desired period of time, the kill in % is determined. 100% means that all aphids have been killed; 0% means that none of the aphids have been killed.

In a further test the test system is Myzus persicae. Description: Test for persistency: Myzus persicae (root-systemic action). Particulars: 4 ppm in soil, broad beans. On the procedure:
as §3, with “pre-germinated broad beans.” for “cotton at the cotyledon stage.”, “peach” for “cotton”, “(Myzus persicae)” for “(Aphis gossypii)”

As to `COC1CCC2(CC1)NC(=O)C(Cl)(c1ccc(C)cc1Cl)C2=O` (centres unmarked) [Ex. I-1-a-3], the “Kill rate in % after 7d” value in the test with Spodoptera frugiperda is reported as 100%.

For `COC1CCC2(CC1)NC(=O)C(Cl)(c1c(C)cc(C)cc1Cl)C2=O` (centres unmarked) [Ex. I-1-a-8], the “Kill rate in % after 7d” value in the test with Spodoptera frugiperda and with Tetranychus urticae was 100% in each case. Further, the “% damage, Alopecurus” value in the test on Alopecurus [1] and in the test on Alopecurus [7] was 100% throughout. The figures for the “% damage, Avena fatua” value in the test on Avena fatua [2] and with Avena fatua [8] were 100% and 90%, respectively. Moreover, the “% damage, Echinochloa” value in the test on Echinochloa [3] and with Echinochloa [9] was 100% in each case. The “% damage, Setaria” value with Setaria [4] and in the test on Setaria [10] was 100% in each case. Moreover, the “% damage, Amaranthus” value was 100% with Amaranthus [5] and 90% in the test with Amaranthus [11]. The “% damage, Sinapis” value with Sinapis [6] was 100%; in the test on Sinapis [12], 80%.

As to `COC1CCC2(CC1)NC(=O)C(Cl)(c1cc(C)ccc1Br)C2=O` (centres unmarked) [Ex. I-1-a-28], in the test on Aphis gossypii [13], the “Kill rate in % after 6d” value was found to be 90%. For the same molecule, the “Kill rate in % after 7d” value in the test with Phaedon cochleariae and in the test on Plutella xylostella was 100% throughout.

For the molecule `Cc1cc(Br)cc(C)c1C1(Cl)C(=O)NC2(CCOCC2)C1=O` (centres unmarked) [Ex. I-1-c-3], the “Kill rate in % after 6d” value in the test on Aphis gossypii [13] is 90%. Further, the “Kill rate in % after 7d” value in the test with Plutella xylostella was 100%; in the test with Aphis gossypii [14] (infection after 7 d), 100%; with Aphis gossypii [14] (infection after 21 d), 98^ %; in the test with Aphis gossypii [14] (infection after 35 d), 98^ %; in the test with Myzus persicae (infection after 7 d), 99%; with Myzus persicae (infection after 21 d), 100%. Also, the “Kill rate in % after 7d” value in the test with Myzus persicae (infection after 35 d) was 99%.
